Where two headings read alike, the source gives them in different places.
Experiments:
vitamin D-deficient rats [1] = assay: Bone calcium mobilization (serum calcium); format: in vivo, rat; conditions: FIG. 4
Procedure: (§1) Male, weanling Sprague-Dawley rats were placed on Diet 11 (0.47% Ca) diet+AEK for one week followed by Diet 11 (0.02% Ca)+AEK for 3 weeks. The rats were then switched to a diet containing 0.47% Ca for one week followed by two weeks on a diet containing 0.02% Ca. Dose administration began during the last week on 0.02% calcium diet. Four consecutive ip doses were given approximately 24 hours apart. Twenty-four hours after the last dose, blood was collected from the severed neck and the concentration of serum calcium determined as a measure of bone calcium mobilization. The first 10 cm of the intestine was also collected for intestinal calcium transport analysis using the everted gut sac method.

[2] = system: 24-hydroxylase (24Ohase) gene promoter in ROS 17/2.8 (bone) cells; assay: In vitro transcription assay (luciferase reporter); format: cell-based; conditions: FIG. 3; for EC50: ROS 17/2.8 cells, 24Ohase promoter-luciferase, 16 h, read-out: EC50, transcriptional activity in bone cells
Procedure: Transcription activity was measured in ROS 17/2.8 (bone) cells that were stably transfected with a 24-hydroxylase (24Ohase) gene promoter upstream of a luciferase reporter gene (Arbour et al., 1998). Cells were given a range of doses. Sixteen hours after dosing the cells were harvested and luciferase activities were measured using a luminometer.
RLU=relative luciferase units.

[3] = system: Human promyelocytic leukemia (HL60) cells; assay: HL-60 differentiation (nitro blue tetrazolium reduction); format: cell-based; conditions: FIG. 2; for EC50: HL-60 cells, four days after treatment, read-out: EC50, HL-60 cell differentiation
Procedure: The study drugs were dissolved in ethanol and the concentrations determined using UV spectrophotometry. Serial dilutions were prepared so that a range of drug concentrations could be tested without changing the final concentration of ethanol (≦0.2%) present in the cell cultures.
Human promyelocytic leukemia (HL60) cells were grown in RPMI-1640 medium containing 10% fetal bovine serum. The cells were incubated at 37° C. in the presence of 5% CO2.
HL60 cells were plated at 1.2×10^5 cells/ml. Eighteen hours after plating, cells in duplicate were treated with drug. Four days later, the cells were harvested and a nitro blue tetrazolium reduction assay was performed (Collins et al., 1979; J. Exp. Med. 149:969-974). The percentage of differentiated cells was determined by counting a total of 200 cells and recording the number that contained intracellular black-blue formazan deposits. Verification of differentiation to monocytic cells was determined by measuring phagocytic activity (data not shown).

vitamin D-deficient rats [4] = assay: Intestinal calcium transport (everted gut sac method); format: in vivo, rat; conditions: FIG. 5; for intestinal calcium transport: everted gut sac
Procedure: as §1

[5] = target: T1, full-length recombinant rat vitamin D receptor (Rattus norvegicus, UniProt P13053); assay: Vitamin D receptor binding, competition with [3H]-1,25(OH)2D3; conditions: FIG. 1
T1 construct: Full-length recombinant rat receptor was expressed in E. coli; histidine tag (C); made in house; host or cells: E. coli BL21 (DE3) Codon Plus RIL
T1 sequence (P13053 1-423): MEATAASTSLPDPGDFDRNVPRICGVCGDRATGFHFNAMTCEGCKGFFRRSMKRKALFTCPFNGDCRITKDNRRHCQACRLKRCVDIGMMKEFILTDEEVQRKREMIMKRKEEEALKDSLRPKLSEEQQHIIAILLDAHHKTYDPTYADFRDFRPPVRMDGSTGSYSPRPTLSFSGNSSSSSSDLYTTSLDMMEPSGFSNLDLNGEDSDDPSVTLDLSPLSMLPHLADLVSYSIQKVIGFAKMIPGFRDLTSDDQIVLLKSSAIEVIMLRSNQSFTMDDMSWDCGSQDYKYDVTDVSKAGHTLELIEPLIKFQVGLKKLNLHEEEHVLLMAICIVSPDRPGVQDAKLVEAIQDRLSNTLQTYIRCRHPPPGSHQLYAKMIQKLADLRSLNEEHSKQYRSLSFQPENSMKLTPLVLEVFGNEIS
Procedure: Full-length recombinant rat receptor was expressed in E. coli BL21 (DE3) Codon Plus RIL cells and purified to homogeneity using two different column chromatography systems. The first system was a nickel affinity resin that utilizes the C-terminal histidine tag on this protein. The protein that was eluted from this resin was further purified using ion exchange chromatography (S-Sepharose Fast Flow). Aliquots of the purified protein were quick frozen in liquid nitrogen and stored at −80° C. until use. For use in binding assays, the protein was diluted in TEDK50 (50 mM Tris, 1.5 mM EDTA, pH7.4, 5 mM DTT, 150 mM KCl) with 0.1% Chaps detergent. The receptor protein and ligand concentration were optimized such that no more than 20% of the added radiolabeled ligand was bound to the receptor.
Radiolabeled and unlabeled ligands were added to 100 mcl of the diluted protein at a final ethanol concentration of ≦10%, mixed and incubated overnight on ice to reach binding equilibrium. The following day, 100 mcl of hydroxylapatite slurry (50%) was added to each tube and mixed at 10-minute intervals for 30 minutes. The hydroxylapaptite was collected by centrifugation and then washed three times with Tris-EDTA buffer (50 mM Tris, 1.5 mM EDTA, pH 7.4) containing 0.5% Titron X-100. […] Total binding was determined from the tubes containing only radiolabeled ligand.

Row | Ki ([5]; full-length recombinant rat VDR) [nM] | binding to the receptor compared to 1,25-(OH)2D3 ([5]; in words) | EC50 ([3]; Homo sapiens, 96 h) [nM] | Structure (SMILES) | serum calcium levels (vitamin D-deficient rats [1]; all dosages, rats on low calcium diet (0.02%)) | EC50 [2] [nM] | EC50 [3] [nM] | intestinal calcium transport (vitamin D-deficient rats [4]; 260 pmol/day) | bone calcium mobilization (serum calcium) (vitamin D-deficient rats [1]; 260 pmol/day ip for 4 consecutive days, rats on low calcium diet (0.02%)) | bone calcium mobilization (serum calcium) (vitamin D-deficient rats [1]; 7020 pmol/day, rats on low calcium diet (0.02%)) | bone calcium mobilization activity compared to 1,25(OH)2D3 (vitamin D-deficient rats [1]; in words) | transcriptional activity in bone cells compared to 1α,25-dihydroxyvitamin D3 ([2]; in words) | potency on HL-60 cell differentiation compared to 1,25(OH)2D3 ([3]; in words) | intestinal calcium transport (vitamin D-deficient rats [4]; 7020 pmol/day) | intestinal calcium transport activity compared to 1,25(OH)2D3 (vitamin D-deficient rats [4]; in words)
1 |  |  |  | C=C1/C(=C\C=C2/CCC[C@]3(C)[C@@H]([C@H](C)CCCC(C)(C)O)CC[C@@H]23)C[C@@H](O)C[C@@H]1O [1,25(OH)2D3, 1α,25-dihydroxyvitamin D3, reference compound] | increased serum calcium levels at all dosages | 0.2 | 2 | promotes a significant increase |  |  |  |  |  |  | 
2 | 0.4 | bound equally to the receptor | 1 | C=C1[C@H](O)CC(=C/C=C2\CCC[C@]3(C)[C@@H]([C@H](C)/C=C/C[C@H](C)O)CC[C@@H]23)C[C@H]1O [REN, 2-methylene-(20R,25S)-19,27-dinor-(22E)-1α,25-dihydroxyvitamin D3] |  | 0.1 |  | promotes intestinal calcium transport only slightly | did not result in mobilization of bone calcium | without any substantial effect | very little bone calcium mobilization activity | about the same transcriptional activity | as potent as 1,25(OH)2D3 | significant intestinal calcium transport activity | very little activity

Source: US7741314B2, “2-Methylene-(20R,25S)-19,27-Dinor-(22E)-Vitamin D Analogs” (Wisconsin Alumni Research Foundation, priority 2006, dated 2010)
